The source made the active and inactive calls. No cut-off for these calls is given here.
What was measured:
C6 [1] = test: Antiproliferative activity against rat C6 cells assessed as growth inhibition incubated for 72 hrs by CCK-8 assay; format: functional, cell-based; conditions: C6, 72 h
U-87 MG = test: Antiproliferative activity against human U-87 MG cells assessed as growth inhibition incubated for 72 hrs by CCK-8 assay; format: functional, cell-based, U-87MG ATCC
[2] = target: T1, Prostaglandin G/H synthase 2 (Homo sapiens, UniProt P35354); test: Inhibition of human COX2 assessed as fluorescence by microplate reader
T1 sequence (P35354 whole entry): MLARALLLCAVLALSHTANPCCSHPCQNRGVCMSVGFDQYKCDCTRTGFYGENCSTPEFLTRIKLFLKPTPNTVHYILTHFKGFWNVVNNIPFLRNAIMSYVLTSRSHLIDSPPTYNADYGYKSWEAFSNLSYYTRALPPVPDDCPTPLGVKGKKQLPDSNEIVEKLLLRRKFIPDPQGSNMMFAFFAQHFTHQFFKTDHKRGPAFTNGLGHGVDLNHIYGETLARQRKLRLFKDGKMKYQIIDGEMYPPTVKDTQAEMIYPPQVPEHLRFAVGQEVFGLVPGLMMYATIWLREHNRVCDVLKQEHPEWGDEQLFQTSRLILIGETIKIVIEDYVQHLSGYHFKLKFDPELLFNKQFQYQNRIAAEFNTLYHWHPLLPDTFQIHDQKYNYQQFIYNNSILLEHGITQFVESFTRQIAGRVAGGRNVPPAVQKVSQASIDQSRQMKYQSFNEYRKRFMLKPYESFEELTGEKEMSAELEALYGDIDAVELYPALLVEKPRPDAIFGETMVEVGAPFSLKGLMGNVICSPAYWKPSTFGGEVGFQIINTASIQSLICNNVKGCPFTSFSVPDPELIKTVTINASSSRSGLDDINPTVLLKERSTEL

U-251 = test: Antiproliferative activity against human U-251 cells assessed as growth inhibition incubated for 72 hrs by CCK-8 assay; format: functional, cell-based; conditions: U-251, 72 h
BV-2 = test: Inhibition of MMP9 production in mouse BV-2 cells co-cultured with rat C6 glioma cells at 2 uM incubated for 24 hrs by Western blot analysis; format: functional, cell-based
C6 [3] = test: Antitumor activity against rat C6 cells inoculated orthotopic Sprague-Dawley rat model assessed as decrease in VEGF-A in tumor tissue at 50 mg/kg, ip twice a day treated 3 days after tumor cell injection measured for 13 days after tumor implantation by Western blot analysis; format: functional, organism-based; conditions: time 3.0 day
C6 [4] = test: Antitumor activity against rat C6 cells inoculated orthotopic Sprague-Dawley rat model assessed as decrease in p-STAT3 in tumor tissue at 50 mg/kg, ip twice a day treated 3 days after tumor cell injection measured for 13 days after tumor implantation by Western blot analysis; format: functional, organism-based; conditions: time 3.0 day
[5] = Toxicity in rat C6 cells inoculated orthotopic Sprague-Dawley rat model assessed as body weight change at 50 mg/kg, ip twice a day administered for 13 days of tumor implantation; format: organism-based; conditions: in vivo, 312 h, time 13 day
C6 [6] = test: Antitumor activity against rat C6 cells inoculated orthotopic Sprague-Dawley rat model assessed as reduction tumor weight at 50 mg/kg, ip twice a day treated 3 days after tumor cell injection measured for 13 days after tumor implantation; format: functional, organism-based; conditions: time 3.0 day
C6 [7] = test: Antitumor activity against rat C6 cells inoculated orthotopic Sprague-Dawley rat model assessed as tumor growth inhibition at 50 mg/kg, ip twice a day treated 3 days after tumor cell injection measured for 13 days after tumor implantation; format: functional; conditions: 72 h, time 3 day, read-out: TGI
C6 [8] = test: Antitumor activity against rat C6 cells inoculated orthotopic Sprague-Dawley rat model assessed as decrease in PGE2 in tumor tissue at 50 mg/kg, ip twice a day treated 3 days after tumor cell injection measured for 13 days after tumor implantation […]; format: functional, organism-based; conditions: time 3.0 day
C6 [9] = test: Antitumor activity against rat C6 cells inoculated orthotopic Sprague-Dawley rat model assessed as increase in E-cadherin in tumor tissue at 50 mg/kg, ip twice a day treated 3 days after tumor cell injection measured for 13 days after tumor implantation by Western blot analysis; format: functional, organism-based; conditions: time 3.0 day
C6 [10] = test: Antitumor activity against rat C6 cells inoculated orthotopic Sprague-Dawley rat model assessed as reduction tumor volume at 50 mg/kg, ip twice a day treated 3 days after tumor cell injection measured for 13 days after tumor implantation; format: functional, organism-based; conditions: time 3.0 day

IC50 (U-87 MG) [µM]	IC50 [2] [µM]	IC50 (U-251) [µM]	Compound	IC50 (C6 [1]) [µM]	also measured
> 40	> 40	18.2	CCCCc1ccc(Nc2ccccc2C(=O)NCCc2c[nH]c3ccccc23)cc1	> 33.7	–
> 40	1.21	> 40	Nc1ccccc1Nc1ccccc1C(=O)NCCc1c[nH]c2ccccc12	> 40	inhibition (BV-2): Active
> 40	5.68	> 40	O=C(NCCc1c[nH]c2ccccc12)c1ccccc1Nc1ccc(Br)cc1	> 40	–
> 40	> 40	25.1	O=C(NCCc1c[nH]c2ccccc12)c1ccccc1Nc1cncc(Br)c1	> 40	–
> 40	> 40	32.9	O=C(NCCc1c[nH]c2ccccc12)c1ccccc1Nc1ccccc1I	> 40	–
34.7	5.96	13.7	Cc1ccc(Nc2ccccc2C(=O)NCCc2c[nH]c3ccccc23)cc1	> 40	–
> 40	–	> 40	Cc1ccc(-c2cc(C(F)(F)F)nn2-c2ccc(S(N)(=O)=O)cc2)cc1 [CELECOXIB]	> 40	–
> 40	4.23	26.2	O=C(NCCc1c[nH]c2ccccc12)c1ccccc1Nc1ccccc1F	> 40	–
23.4	31	13.3	Cc1cccc(Nc2ccccc2C(=O)NCCc2c[nH]c3ccccc23)c1	> 40	–
> 40	> 40	14.8	O=C(NCCc1c[nH]c2ccccc12)c1ccccc1Nc1ccccc1Cl	> 40	–
> 40	2.96	27.5	O=C(NCCc1c[nH]c2ccccc12)c1ccccc1Nc1cccnc1Cl	24.1	–
> 40	17.6	24.4	Cc1cncc(Nc2ccccc2C(=O)NCCc2c[nH]c3ccccc23)c1	> 40	–
> 40	2.46	12.8	O=C(NCCc1c[nH]c2ccccc12)c1ccccc1Nc1ccc(F)cc1	27.1	–

The next lines start with the compound.

Compound	IC50 (U-87 MG) [µM]	IC50 [2] [µM]	IC50 (U-251) [µM]	IC50 (C6 [1]) [µM]	also measured
Cc1ncccc1Nc1ccccc1C(=O)NCCc1c[nH]c2ccccc12	> 40	1.96	24.6	> 40	–
COc1ccc(Nc2ccccc2C(=O)NCCc2c[nH]c3ccccc23)cc1	> 40	6.21	32.3	> 40	–
Cn1nnc2c(C(N)=O)ncn2c1=O [TEMOZOLOMIDE]	–	–	–	–	Activity (C6 [3]): Active; Activity (C6 [4]): Active; Activity [5]: Toxic; Activity (C6 [6]): Active; inhibition in vivo at 50 mg/kg (C6 [7]): 54.8%; Activity (C6 [8]): Active; Activity (C6 [9]): Active; Activity (C6 [10]): Active
COc1ccc2[nH]cc(CCNC(C)=O)c2c1 [MELATONIN]	> 40	–	> 40	> 40	–
O=C(NCCc1c[nH]c2ccccc12)c1ccccc1Nc1ccccc1Br	> 40	> 40	21.4	17.9	–
O=C(NCCc1c[nH]c2ccccc12)c1ccccc1Nc1ccc2nccnc2c1	> 40	> 40	> 40	> 40	–
O=C(NCCc1c[nH]c2ccccc12)c1ccccc1Nc1cccc(Br)c1	> 40	> 40	21	> 40	–
O=C(NCCc1c[nH]c2ccccc12)c1ccccc1Nc1ccc(Cl)cc1	> 40	3.98	17.9	> 40	–
O=C(NCCc1c[nH]c2ccccc12)c1ccccc1Nc1cccnc1	> 40	23.7	25.2	> 40	–
O=C(NCCc1c[nH]c2ccccc12)c1ccccc1Nc1cccc(Cl)c1	> 40	> 40	22.2	> 40	–
O=C(NCCc1c[nH]c2ccccc12)c1ccccc1Nc1ccc(C(F)(F)F)cc1	35.7	> 40	17.3	> 40	–
CN(C)c1ccc(Nc2ccccc2C(=O)NCCc2c[nH]c3ccccc23)cc1	> 40	1.43	> 40	> 40	inhibition (BV-2): Active
Cc1ccc(Nc2ccccc2C(=O)NCCc2c[nH]c3ccccc23)cn1	> 40	19.6	17.9	> 40	–
O=C(NCCc1c[nH]c2ccccc12)c1ccccc1Nc1cccc(F)c1	> 40	> 40	20.4	> 40	–
Cc1ccccc1Nc1ccccc1C(=O)NCCc1c[nH]c2ccccc12	> 40	> 40	30.5	> 40	–
O=C(NCCc1c[nH]c2ccccc12)c1ccccc1Nc1cccc2cccnc12	> 40	> 40	> 40	> 40	–

Source: ChEMBL document CHEMBL4825684, “Design, synthesis and biological evaluation of N-anthraniloyl tryptamine derivatives as pleiotropic molecules for the therapy of malignant glioma” (Eur J Med Chem, 2021)
